Results from patent publication US20150368220A1, “PHARMACEUTICAL COMPOSITION FOR TREATING OR PREVENTING STRESS URINARY INCONTINENCE OR MIXED URINARY INCONTINENCE, AND METHOD FOR SCREENING COMPOUND COMPRISED IN SAID PHARMACEUTICAL COMPOSITION” (Astellas Pharma Inc., priority 2012, published 2015).

Columns and labels:
SD female rat [1] = test: Effect on urethral pressure, microchip method (Example 4); type: in vivo; settings: intravenous, anesthetized SD female rat, FIGS. 8 and 9
Excerpt: An SD female rat was anesthetized with urethane and allowed to undergo laparotomy, and then a catheter was mounted in the bladder dome for urine leakage in the bladder. Further, a catheter was mounted in the femoral vein for the administration of a compound and a catheter was mounted in the carotid artery for the measurement of blood pressure described in Example 6 as described later. […] The catheter mounted in the carotid artery was attached to a pressure transducer and the blood pressure was measured.

human MT1 receptor = target: T1, human MT1 receptor (Homo sapiens, UniProt P48039); test: Intracellular Ca2+ concentration by FLIPR in human MT1 receptor expressing cells (Example 2); type: cell-based; settings: human MT1 receptor expressing HEK293 cells, 10^-5 M to 10^-12 M, FIGS. 2 and 4
T1 construct: expressed in transfected cells; vector pCDNA3.1/Zeo; co-transfected with a Gq/i chimeric G protein expression vector
T1 sequence (P48039 whole entry): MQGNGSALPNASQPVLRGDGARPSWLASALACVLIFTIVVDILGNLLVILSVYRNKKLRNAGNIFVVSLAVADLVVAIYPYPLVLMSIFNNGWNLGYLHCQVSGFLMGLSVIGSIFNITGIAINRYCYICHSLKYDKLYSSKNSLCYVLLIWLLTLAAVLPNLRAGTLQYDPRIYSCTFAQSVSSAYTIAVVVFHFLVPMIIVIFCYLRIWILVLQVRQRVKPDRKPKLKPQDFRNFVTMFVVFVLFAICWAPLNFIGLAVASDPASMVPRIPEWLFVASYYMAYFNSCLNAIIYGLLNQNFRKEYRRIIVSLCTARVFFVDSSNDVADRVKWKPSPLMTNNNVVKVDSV
Description: (§1) The expression vectors for human MT1 and MT2 receptors were introduced into HEK293 cells, together with a Gq/i chimeric G protein expression vector, respectively. The incorporation was carried out in accordance with instructions, using a Lipofectoamine (registered trademark) 2000 Reagent (Invitrogen Inc.). Using Zeocin and hygromycin as a resistant agent, the cells were cultured for 15 days in the presence of 0.02 mg/mL and 0.05 mg/mL of the agents, respectively, thereby acquiring a drug-resistant clone.
(§2) The respective stably expressing cells were dispensed into 96 wells in a poly-D-lysine-coated plate (Falcon) the day before the experiment to give 40,000 cells/well, and cultured in a DMEM (Invitrogen Inc.) medium containing 10% FBS at 37° C. and 5% CO2 overnight. The medium was replaced with a loading buffer (a washing solution containing 4 μM Fluo-4AM (Dojindo Co.) (Hank's balanced salt solution (HBSS), 20 mM HEPES-NaOH, 2.5 mM probenecid)) and cultured at 37° C. and 5% CO2 for 1 hour.

isolated bladder = test: Isolated bladder contraction (Example 6); settings: isolated bladder of SD female rat, cumulative addition
Excerpt: (§3) (1) The bladder and uterus were isolated from an SD female rat having a body weight of 100 g to 500 g. For the isolated bladder, the parts below the parietal region and the triangular portion were resected to make only the body portion into a ring state, and further, one side of the tissue in the ring state was cut to a band-shaped tissue. The bladder in the band shape was isolated parallel to the median axis of the bladder to prepare strip-shaped specimens having a length of about 10 mm and a width of about 3 mm. The specimens were suspended in a 10 mL tissue bus filled with a Krebs-Henseleit solution (pH 7.4) at a resting tension of 0.5 g and the isometric contraction was recorded. For the isolated uterus, the edge portion of the uterus was cut and incised vertically, whereby a strip-shaped specimen having a width of about 6 mm was then prepared. The specimens were suspended in a 10 mL tissue bus filled with a Krebs—Henseleit solution (pH 7.4) at a resting tension of 0.5 g and the isometric contraction was recorded. […] For the bladder specimen, after the resting tension was stabilized, a 60 mM KCl solution or a 10 μM carbachol solution was added thereto to cause contraction. The specimens were washed and stabilized, and then the compounds were cumulatively administered.

isolated urethra = test: Urethra contracting action using isolated urethra (Example 3); settings: isolated urethra of SD female rat, cumulative 10^-5 M to 10^-12 M, FIGS. 6 and 7
Description: The urethra was isolated from an SD female rat having a body weight of 100 g to 500 g. The isolated urethra was incised vertically and then made into strip-shaped specimens having a width of about 3 mm. The specimens were suspended in a 10 mL tissue bus filled with a Krebs—Henseleit solution (pH 7.4) in the circular muscle direction. The Krebs—Henseleit solution was aerated at 95% O2 and 5% CO2, and warmed at 37° C. The resting tension was set to 0.5 g and the isometric contraction was recorded. After the resting tension was stabilized, a 10 μM phenylephrine solution was added thereto to cause contraction.

isolated uterus = test: Isolated uterus contraction (Example 6); settings: isolated uterus of SD female rat
Excerpt: as §3

SD female rat [2] = test: Effect on urethral pressure, perfusion method (Example 4); type: in vivo; settings: intravenous, anesthetized SD female rat, FIGS. 10 to 14
Description: An SD female rat was anesthetized with urethane and allowed to undergo laparotomy, the bladder dome was then incised, and a catheter having a barb at the tip was inserted toward the urethra from the bladder, and ligated and fixed such that the tip of the catheter was positioned around the proximal urethra. Physiological saline was injected at a predetermined flow rate into the urethra through the catheter and the urethral pressure was measured with a pressure transducer. After the urethral pressure was stabilized, compounds dissolved in physiological saline, or physiological saline containing 5% N,N-dimethylacetamide(DMA) and 0.5% Cremophor were intravenously administered at a dose of 1 μg/kg, 10 μg/kg, 100 μg/kg, or 1000 μg/kg and a change in the urethral pressure was measured.

human MT2 receptor = target: T2, human MT2 receptor (Homo sapiens, UniProt P49286); test: Intracellular Ca2+ concentration by FLIPR in human MT2 receptor expressing cells (Example 2); type: cell-based; settings: human MT2 receptor expressing HEK293 cells, 10^-5 M to 10^-12 M, FIGS. 3 and 5
T2 construct: expressed in transfected cells; vector pCDNA3.1/Zeo; co-transfected with a Gq/i chimeric G protein expression vector
T2 sequence (P49286 1-362): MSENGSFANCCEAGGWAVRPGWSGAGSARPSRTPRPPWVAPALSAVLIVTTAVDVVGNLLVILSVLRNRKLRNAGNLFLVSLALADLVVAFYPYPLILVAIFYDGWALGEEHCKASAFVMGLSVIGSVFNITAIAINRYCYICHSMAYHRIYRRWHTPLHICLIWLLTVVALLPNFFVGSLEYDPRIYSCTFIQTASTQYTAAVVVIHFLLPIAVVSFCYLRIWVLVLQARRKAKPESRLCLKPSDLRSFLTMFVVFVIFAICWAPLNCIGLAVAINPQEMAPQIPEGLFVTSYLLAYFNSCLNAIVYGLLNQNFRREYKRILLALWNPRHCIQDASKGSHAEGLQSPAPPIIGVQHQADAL
Description: as §1, §2

SD female rat [3] = test: Effect on rat blood pressure (Example 6); type: in vivo; settings: intravenous, at a dose for increasing the urethral pressure, FIGS. 21 and 22
Excerpt: An SD female rat was anesthetized with urethane and allowed to undergo laparotomy, and then a catheter was mounted in the bladder dome for urine leakage in the bladder. Further, a catheter was mounted in the femoral vein for the administration of a compound and a catheter was mounted in the carotid artery for the measurement of blood pressure described in Example 6 as described later. A microchip transducer catheter (Milar Instruments) was inserted toward the bladder from the external urethral meatus for the measurement of the urethral pressure, and fixed such that the transducer portion was positioned around the portion at which the urethral pressure was maximized (10.0 mm to 15.0 mm from the external urethral meatus). The catheter mounted in the carotid artery was attached to a pressure transducer and the blood pressure was measured.
(2) In the experiment for measuring the urethral pressure in Example 4, the blood pressure was measured simultaneously. After the urethral pressure and the blood pressure were stabilized, the compound was administered and a change in the blood pressure was measured.

For CCC(=O)NCC[C@@H]1CCc2ccc3c(c21)CCO3 [ramelteon, (S)-N-[2-(1,6,7,8-tetrahydro-2H-indeno[5,4-b]furan-8-yl)ethyl]propionamide], the “urethral pressure increasing action” value (SD female rat [1]) was “increased the urethral pressure”, the “intracellular Ca^2+ concentration (melatonin receptor activating action)” value (human MT1 receptor) was “increased” and the “contraction action on the isolated bladder” value (isolated bladder) was “did not exhibit a contraction action”. The urethra contracting action (isolated urethra) was “contracted the isolated urethra”, the “effect on the rhythmic contraction of the isolated uterus” value (isolated uterus; FIG. 20) was “did not have an effect” and the “contraction action on the isolated uterus” value (isolated uterus; cumulative 10^-5 M to 10^-11 M) was “did not exhibit a contraction action”. For the same compound, the “urethral pressure increasing action” value (SD female rat [2]) was “increased the urethral pressure”, the “intracellular Ca^2+ concentration (melatonin receptor activating action)” value (human MT2 receptor) was “increased” and the “effect on blood pressure (mean blood pressure)” value (SD female rat [3]) was “did not increase the blood pressure”.
